Earlier results, collected in patent publication US20070028401A1, “Powdered preparations containing a mixture of 2,4,6-trianilino-p-(carbo-2'-ethylhexyl-1'-oxi)-1,3,5-triazine and diethylamino-hydroxybenzoyl-hexyl-benzoate” (BASF Aktiengesellschaft, priority 2003, published 2007).
Where two headings read alike, the source gives them in different places.

absorbance coefficient (at 314 nm)	absorbance coefficient (at 354 nm)	SMILES
> 1500		CCCCC(CC)COC(=O)c1ccc(Nc2nc(Nc3ccc(C(=O)OCC(CC)CCCC)cc3)nc(Nc3ccc(C(=O)OCC(CC)CCCC)cc3)n2)cc1 (centres unmarked) [Uvinul T150, 2,4,6-Trianilino-p-(carbo-2′-ethylhexyl-1′-oxy)-1,3,5-triazine]
	940	CCCCCCOC(=O)c1ccccc1C(=O)c1ccc(N(CC)CC)cc1O [Uvinul® A Plus, Diethylamino hydroxybenzoyl hexyl benzoate]
